Test results: patent US20070179060A1, “6-(Poly-substituted aryl)-4-aminopicolinates and their use as herbicides” (priority 2006, published 2007)

Experiments:
[1] = test system: velvetleaf (Abutilon theophrasti); assay: Postemergence herbicidal activity; assay type: in vivo; conditions: post-emergent, 140 g ai/ha, after 14 days; for pest or weed control at 140 g/ha: Abutilon theophrasti, post-emergence, 336 h, read-out: % Control ABUTH
Outline: (§1)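 Compounds were applied postemergence by track sprayer delivering 187 L/ha, using a mixed organic/aqueous carrier containing crop oil concentrate and surfactant; solvent-blank sprays served as controls. Test plants were at the first to second true leaf stage after 7-21 days' greenhouse growth, were sub-irrigated after treatment, and were evaluated by probit analysis.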

[2] = test system: redroot pigweed (Amaranthus retroflexus); assay: Postemergence herbicidal activity; assay type: in vivo; conditions: post-emergent, 140 g ai/ha, after 14 days; for pest or weed control at 140 g/ha: Amaranthus retroflexus, post-emergence, 336 h, read-out: % Control AMARE
Outline: as §1

[3] = test system: lambsquarter (Chenopodium album); assay: Postemergence herbicidal activity; assay type: in vivo; conditions: post-emergent, 140 g ai/ha, after 14 days; for pest or weed control at 140 g/ha: Chenopodium album, post-emergence, 336 h, read-out: % Control CHEAL
Outline: as §1

Lamium purpureum = assay: Postemergence herbicidal activity in cereal crops; assay type: in vivo; conditions: post-emergent, after 20-22 days
Description: (§2) When required to ensure good germination and healthy plants, a fungicide treatment and/or other chemical or physical treatment was applied. The plants were grown for 7-36 days in a greenhouse with an approximate 14 hour photoperiod which was maintained at about 18° C. during the day and 17° C. during the night. Nutrients and water were added on a regular basis and supplemental lighting was provided with overhead metal halide 1000-Watt lamps as necessary. The plants were employed for testing when they reached the second or third true leaf stage. […] The concentrated stock solutions obtained were diluted with 16 mL of an aqueous mixture containing acetone, water, isopropyl alcohol, DMSO, Agri-dex crop oil concentrate, and Triton® X-77 surfactant in a 64.7:26.0:6.7:2.0:0.7:0.01 v/v ratio to obtain spray solutions containing the highest application rates. […] Compound requirements are based upon a 12 mL application volume at a rate of 187 L/ha. Formulated compounds were applied to the plant material with an overhead Mandel track sprayer equipped with a […] nozzles calibrated to deliver 187 L/ha over an application area of 0.503 square meters at a spray height of 18 inches (43 cm) above average plant canopy height. Control plants were sprayed in the same manner with the blank. The treated plants and control plants were placed in a greenhouse as described above and watered by sub-irrigation to prevent wash-off of the test compounds.

[4] = test system: wheat (Triticum aestivum); assay: Postemergence herbicidal activity in cereal crops; assay type: in vivo; conditions: crop, post-emergent, after 20-22 days
Description: as §2

Galium aparine = assay: Postemergence herbicidal activity in cereal crops; assay type: in vivo; conditions: post-emergent, after 20-22 days
Description: as §2

Veronica persica = assay: Postemergence herbicidal activity in cereal crops; assay type: in vivo; conditions: post-emergent, after 20-22 days
Description: as §2

Papaver rhoeas = assay: Postemergence herbicidal activity in cereal crops; assay type: in vivo; conditions: post-emergent, after 20-22 days
Description: as §2

barley (Hordeum vulare) = assay: Postemergence herbicidal activity in cereal crops; assay type: in vivo; conditions: crop, post-emergent, after 20-22 days
Description: as §2

[5] = test system: velvetleaf (Abutilon theophrasti); assay: Preemergence herbicidal activity; assay type: in vivo; conditions: Abutilon theophrasti, pre-emergence, 480 h; pre-emergent, 140 g ai/ha, after 20-22 days; read-out: % Control ABUTH
Source text: (§3) Seeds of the desired test plant species were planted in a soil matrix prepared by mixing a loam soil (43 percent silt, 19 percent clay, and 38 percent sand, with a pH of about 8.1 and an organic matter content of about 1.5 percent) and sand in a 70 to 30 ratio. The soil matrix was contained in plastic pots with a surface area of 113 square centimeters. When required to ensure good germination and healthy plants, a fungicide treatment and/or other chemical or physical treatment was applied. […] Compound requirements are based upon a 12 mL application volume at a rate of 187 L/ha. Formulated compounds were applied to the plant material with an overhead Mandel track sprayer equipped with a […] nozzles calibrated to deliver 187 L/ha over an application area of 0.503 square meters at a spray height of 18 inches (43 cm) above the soil surface. Control plants were sprayed in the same manner with the solvent blank. The treated pots and control pots were placed in a greenhouse maintained with an approximate 15 hour photoperiod and temperatures of about 23-29° C. during the day and 22-28° C. during the night. Nutrients and water were added on a regular basis and supplemental lighting was provided with overhead metal halide 1000-watt lamps as necessary. The water was added by top-irrigation.

[6] = test system: redroot pigweed (Amaranthus retroflexus); assay: Preemergence herbicidal activity; assay type: in vivo; conditions: Amaranthus retroflexus, pre-emergence, 480 h; pre-emergent, 140 g ai/ha, after 20-22 days; read-out: % Control AMARE
Source text: as §3

[7] = test system: lambsquarter (Chenopodium album); assay: Preemergence herbicidal activity; assay type: in vivo; conditions: Chenopodium album, pre-emergence, 480 h; pre-emergent, 140 g ai/ha, after 20-22 days; read-out: % Control CHEAL
Source text: as §3

With `COC(=O)c1nc(-c2ccc(C)c(OC)c2F)cc(N)c1Cl` [Compound 36, 4-amino-3-chloro-6-(2-fluoro-3-methoxy-4-methylphenyl) pyridine-2-carboxylic acid, methyl ester] the “% Control ABUTH” value [1] was 100%, the “% Control AMARE” value [2] was 100% and the “% Control CHEAL” value [3] was 100%. For the same compound, the “% Control LAMPU” value (Lamium purpureum; 70 g ai/ha) was 99%, the “% Control TRZAS” value ([4]; 70 g ai/ha) was 5% and the “% Control GALAP” value (Galium aparine; 70 g ai/ha) was 95%. For the same compound, the “% Control VERPE” value (Veronica persica; 70 g ai/ha) was 50%, the “% Control PAPRH” value (Papaver rhoeas; 70 g ai/ha) was 99% and the “% Control HORVS” value (barley (Hordeum vulare); 70 g ai/ha) was 0%.
In the case of `CCc1c(Cl)ccc(-c2cc(N)c(Cl)c(C(=O)OC)n2)c1F` [Compound 64, 4-Amino-3-chloro-6-(4-chloro-3-ethyl-2-fluorophenyl)pyridine-2-carboxylic acid, methyl ester], the melting point is reported as 120 to 122 °C, the pest or weed control at 140 g/ha [1] is reported as 95% and the pest or weed control at 140 g/ha [2] is reported as 100%. It also gave a pest or weed control at 140 g/ha [3] of 100%, a pest or weed control at 140 g/ha [5] of 80% and a pest or weed control at 140 g/ha [6] of 100%. It also gave a pest or weed control at 140 g/ha [7] of 100%.
In the case of `CN(C)c1c(Cl)cc(F)c(-c2cc(N)c(Cl)c(C(=O)O)n2)c1F` [Compound 94, 4-Amino-3-chloro-6-(4-chloro-2,6-difluoro-3-dimethylaminophenyl)pyridine-2-carboxylic acid], the melting point is reported as 171 to 172 °C, the pest or weed control at 140 g/ha [1] is reported as 100% and the pest or weed control at 140 g/ha [2] is reported as 100%. For the same compound, the pest or weed control at 140 g/ha [3] was 100%, the pest or weed control at 140 g/ha [5] was 100% and the pest or weed control at 140 g/ha [6] was 100%. For the same compound, the pest or weed control at 140 g/ha [7] was 100%.
In the case of `Cc1c(Cl)ccc(-c2cc(N)c(Cl)c(C(=O)O)n2)c1F` [Compound 99, 4-Amino-3-chloro-6-(4-chloro-2-fluoro-3-methylphenyl)pyridine-2-carboxylic acid], the melting point is reported as 179 to 181 °C (dec.), the pest or weed control at 140 g/ha [1] is reported as 80% and the pest or weed control at 140 g/ha [2] is reported as 90%. The pest or weed control at 140 g/ha [3] was 90%, the pest or weed control at 140 g/ha [5] was 100% and the pest or weed control at 140 g/ha [6] was 100%. The pest or weed control at 140 g/ha [7] was 95%.
For `CCOc1c(Cl)ccc(-c2cc(N)c(Cl)c(C(=O)O)n2)c1F` [Compound 102, 4-Amino-3-chloro-6-(4-chloro-2-fluoro-3-ethoxyphenyl)pyridine-2-carboxylic acid], the melting point was 177 to 178 °C (dec.), the pest or weed control at 140 g/ha [1] was 80% and the pest or weed control at 140 g/ha [2] was 85%. For the same compound, the pest or weed control at 140 g/ha [3] was 95%, the pest or weed control at 140 g/ha [5] was 85% and the pest or weed control at 140 g/ha [6] was 95%. It also gave a pest or weed control at 140 g/ha [7] of 0%.
In the case of `COCc1c(Cl)ccc(-c2cc(N)c(Cl)c(C(=O)O)n2)c1F` [Compound 105, 4-Amino-3-chloro-6-(4-chloro-2-fluoro-3-methoxymethylphenyl)pyridine-2-carboxylic acid], the melting point is reported as 187 to 188 °C (dec.), the pest or weed control at 140 g/ha [1] is reported as 95% and the pest or weed control at 140 g/ha [2] is reported as 98%. The pest or weed control at 140 g/ha [3] was 85%, the pest or weed control at 140 g/ha [5] was 100% and the pest or weed control at 140 g/ha [6] was 100%. For the same compound, the pest or weed control at 140 g/ha [7] was 95%.
For `Nc1cc(-c2ccc3c(c2F)OCO3)nc(C(=O)O)c1Cl` [Compound 108, 4-Amino-3-chloro-6-(2-fluoro-3,4-methylenedioxyphenyl)pyridine-2-carboxylic acid], the melting point was 202 to 203 °C (dec.), the pest or weed control at 140 g/ha [1] was 100% and the pest or weed control at 140 g/ha [2] was 100%. For the same compound, the pest or weed control at 140 g/ha [3] was 95%, the pest or weed control at 140 g/ha [5] was 90% and the pest or weed control at 140 g/ha [6] was 100%. For the same compound, the pest or weed control at 140 g/ha [7] was 90%.
With `COc1c(Cl)ccc(-c2cc(N)c(Cl)c(C(=O)O)n2)c1Cl` [Compound 110, 4-Amino-3-chloro-6-(2,4-dichloro-3-methoxyphenyl)pyridine-2-carboxylic acid] the melting point was 187 to 188 °C (dec.), the pest or weed control at 140 g/ha [1] was 80% and the pest or weed control at 140 g/ha [2] was 90%. It also gave a pest or weed control at 140 g/ha [3] of 85%, a pest or weed control at 140 g/ha [5] of 100% and a pest or weed control at 140 g/ha [6] of 40%. For the same compound, the pest or weed control at 140 g/ha [7] was 40%.
For `Nc1c(F)c(-c2ccc3c(c2F)OCO3)nc(C(=O)O)c1Cl` [Compound 115, 4-Amino-3-chloro-5-fluoro-6-(2-fluoro-3,4-methylenedioxyphenyl)pyridine-2-carboxylic acid], the melting point was 179 to 180 °C, the pest or weed control at 140 g/ha [1] was 100% and the pest or weed control at 140 g/ha [2] was 100%. For the same compound, the pest or weed control at 140 g/ha [3] was 100%, the pest or weed control at 140 g/ha [5] was 100% and the pest or weed control at 140 g/ha [6] was 100%. For the same compound, the pest or weed control at 140 g/ha [7] was 100%.
`CCN(CC)c1c(Cl)ccc(-c2cc(N)c(Cl)c(C(=O)O)n2)c1F` [Compound 116, 4-Amino-3-chloro-6-[4-chloro-3-(diethylamino)-2-fluorophenyl]pyridine-2-carboxylic acid] showed a melting point of 174 to 175 °C, a pest or weed control at 140 g/ha [1] of 80% and a pest or weed control at 140 g/ha [2] of 90%. It also gave a pest or weed control at 140 g/ha [3] of 100%, a pest or weed control at 140 g/ha [5] of 100% and a pest or weed control at 140 g/ha [6] of 100%. The pest or weed control at 140 g/ha [7] was 75%.
`COc1c(Br)ccc(-c2cc(N)c(Cl)c(C(=O)O)n2)c1Cl` [Compound 121, 4-Amino-6-(4-bromo-2-chloro-3-methoxyphenyl)-3-chloropyridine-2-carboxylic acid] gave a melting point of 192 to 193 °C, a pest or weed control at 140 g/ha [1] of 100% and a pest or weed control at 140 g/ha [2] of 95%. It also gave a pest or weed control at 140 g/ha [3] of 90%, a pest or weed control at 140 g/ha [5] of 100% and a pest or weed control at 140 g/ha [6] of 100%. It also gave a pest or weed control at 140 g/ha [7] of 100%.
For `COc1c(Cl)cc(F)c(-c2cc(N)c(Cl)c(C(=O)O)n2)c1F` [Compound 133, 4-Amino-3-chloro-6-(4-chloro-2,6-difluoro-3-methoxyphenyl)pyridine-2-carboxylic acid], the pest or weed control at 17.5 g/ha (Lamium purpureum; Lamium purpureum, post-emergence, 480 h, 17.5 g ai/ha, read-out: % Control LAMPU) was 99%, the plant injury at 17.5 g/ha ([4]; Triticum aestivum, post-emergence, 480 h, 17.5 g ai/ha, read-out: % Control TRZAS) was 0% and the pest or weed control at 17.5 g/ha (Galium aparine; Galium aparine, post-emergence, 480 h, 17.5 g ai/ha, read-out: % Control GALAP) was 100%. The pest or weed control at 17.5 g/ha (Veronica persica; Veronica persica, post-emergence, 480 h, 17.5 g ai/ha, read-out: % Control VERPE) was 70%, the pest or weed control at 17.5 g/ha (Papaver rhoeas; Papaver rhoeas, post-emergence, 480 h, 17.5 g ai/ha, read-out: % Control PAPRH) was 100% and the pest or weed control at 17.5 g/ha (barley (Hordeum vulare); Hordeum, post-emergence, 480 h, 17.5 g ai/ha, read-out: % Control HORVS) was 0%.
